Values quoted from earlier work as cited in patent publication US20170239312A1, “WEIGHT MANAGEMENT SYSTEMS AND RELATED METHODS” (priority 2013, published 2017).

Legend:
[1] = obese rats, 10 mg/kg-body weight
3T3-L1 pre-adipocytes = conditions: dose- and time-dependent
[2] = fed capsaicin versus saline (control group)
[3] = mice, high fat diet, 10 weeks
[4] = 50-200 mg/day
[5] = caffeine alone

Q: Which Body weight gain [1] does the source give for `O=c1c(O)c(-c2ccc(O)c(O)c2)oc2cc(O)cc(O)c12` [quercetin] here?
A: reduced body weight gain

Q: What about the “Apoptosis (cell suicide)” value (3T3-L1 pre-adipocytes) of the same compound?
A: induced apoptosis

Q: For `COc1cc(CNC(=O)CCCC/C=C/C(C)C)ccc1O` [capsaicin], which “Decrease in body weight” value [2] is on record?
A: 8%

Q: With fucoxanthin as the compound, how does the “Body weight and adipose tissue” value [3] read?
A: significant decrease in body weight and adipose tissue

Q: Which “Time to sense of relaxation” value [4] does the source give for `CCNC(=O)CC[C@H](N)C(=O)O` [theanine] here?
A: 30 to 40 min

Q: With `Cn1c(=O)c2c(ncn2C)n(C)c1=O` [Caffeine] as the compound, how does the “Effect on thermogenesis or fat oxidation” value [5] read?
A: no effect
